Entries after “also recorded” stand apart in the source; their conditions may differ. Like-named read-outs stand apart in the source and are kept apart here.
What was measured:
[1] = system: β-APP; assay: β-APP levels in neuroblastoma cell culture (Western blot, mAb 22C11); format: cell-based, human; conditions: for intracellular β-APP level: donepezil treatment, FIG. 2; for β-APP levels, intracellular and extracellular: SK-N-SH cells, 5 or 50 μM, up to 16 hours, vs control, no cellular toxicity (LDH), FIG. 4/5
Method: Acad. Sci. USA 98 (13):7605-7610. The methodology of Shaw et al. for carrying out these tests is summarized as follows:
(§1) SK—N—SH neuroblastoma cells were cultured on 60 mm dishes at a concentration of 3×10^6 cells, and SH—SY-5Y neuroblastoma cells were plated in 100 mm dishes at a concentration of 3×10^5 cells. The cells were allowed to grow in complete media (10% FBS, 2 mM glutamine in DMEM) for 3 to 4 days until they reached 70% confluence.
Lysate preparation: At each time point, the spent medium was collected and stored at −70 C for later analysis of secretory β-APP levels. Cell lysates were prepared as reported previously (Lahiri et al. (1997) Effects of Cholinesterase Inhibitors on the Secretion of Beta-Amyloid Precursor Protein in Cell Cultures, Ann. N.Y Acad. Sci. 826:416-421; and Lahiri et al. (1998) The Secretion of Amyloid Beta-Peptides is Inhibited in the Tacrine-Treated Human Neuroblastoma Cells, Mol. Brain Res. 62:131-140). Protein levels of the supernatant were analyzed by the Bradford protein assay (BioRad, Mellville, N.Y.).
Western Blot: Fifteen μg of protein from each sample was loaded onto a 10% NuPAGE Bis-Tris gel in 1× NuPAGE MOPS SDS running buffer (NOVEX, San Diego, Calif.) and the proteins separated at 200 V for 45 minutes. The gels were then transferred onto nitrocellulose at 25 V for 1.5 hours. Non-specific binding was blocked, and each blot was probed for 2 hours with either 22C11 anti-β-APP N-terminal antibody (2.5 μg/mL, Boehringer Mannheim, Indianapolis, Ind.) or anti-activated ERK antibody (25 ng/mL, Promega, Madison, Wis.). Anti-mouse IgG- or anti-rabbit IgG, conjugated to horse radish peroxidase, were used as secondary antibodies. Equivalent loading of samples was determined by Ponceau S staining (Sigma, St. Louis, Mo.). Densimetric quantification of the chemiluminescence of blots was undertaken by using a […] and NIH-IMAGE (version 4.1).

[2] = system: β-APP; assay: β-APP levels in adult rats after three weeks of daily administration; format: in vivo, rat; conditions: daily for three weeks, metrifonate 80 mg/kg, tacrine 3 mg/kg, data not shown
Method: The levels of β-APP were measured by 22C11 (epitope APP 66-81).

[3] = system: β-APP; assay: CSF levels of β-APP in naive and forebrain-lesioned rats; format: in vivo, rat; conditions: for CSF levels of β-APP: vs untreated controls, FIG. 6
Method: Lesions were induced with […] N-methyl-D-aspartic acid (50 nMol) (64-68).

[4] = molecular target: T1, AChE (Rattus norvegicus, UniProt P37136); assay: In vivo AChE inhibition in plasma after i.v. administration; set-up: species or system Fischer-344 rats; conditions: iv, 1 mg/kg i.v.
T1 construct: Samples of plasma were removed to measure untreated levels of AChE activity; from tissue; host or cells: plasma of Fischer-344 rats
T1 sequence (P37136 32-614): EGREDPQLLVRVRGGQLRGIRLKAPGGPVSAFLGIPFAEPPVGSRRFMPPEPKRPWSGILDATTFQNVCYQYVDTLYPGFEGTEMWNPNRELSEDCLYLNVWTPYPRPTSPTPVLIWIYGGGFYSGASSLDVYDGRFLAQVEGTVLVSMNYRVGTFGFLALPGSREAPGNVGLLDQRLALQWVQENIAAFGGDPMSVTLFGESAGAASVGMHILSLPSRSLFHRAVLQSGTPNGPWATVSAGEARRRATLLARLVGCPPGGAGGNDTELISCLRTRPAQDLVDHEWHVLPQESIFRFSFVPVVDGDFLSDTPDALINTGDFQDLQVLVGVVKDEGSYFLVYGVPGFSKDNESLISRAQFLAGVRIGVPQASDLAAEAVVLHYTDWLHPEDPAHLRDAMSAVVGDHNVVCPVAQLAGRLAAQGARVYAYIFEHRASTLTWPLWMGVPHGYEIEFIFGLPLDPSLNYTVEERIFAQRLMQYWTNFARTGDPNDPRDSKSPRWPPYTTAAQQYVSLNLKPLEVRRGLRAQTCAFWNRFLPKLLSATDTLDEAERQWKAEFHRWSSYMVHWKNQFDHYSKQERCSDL
Method: In this experiment, three-month-old male Fischer-344 rats were anesthetized with halothane. PE 50 catheters, filled with heparinized isotonic saline, were tied into their right femoral artery and vein. Animals then were restrained with a plaster cast that enabled them to move their head and forequarters only and were allowed to recover from anesthesia in a temperature-controlled enclosure. Samples of plasma were removed to measure untreated levels of AChE activity. At 90 minutes after surgery, hexamethonium bromide (5 mg/kg) was administered intraperitoneally, followed by subcutaneous injection of atropine methyl bromide (4 mg/kg) 10 minutes later. […] Both were formulated in a manner consistent for intravenous bolus injection. Plasma samples were removed and immediately frozen at −70° C., just prior to intravenous administration of the inhibitors and at times between 2 minutes and 8 hours.

[5] = i.p. administration to rodents, cholinergic over-stimulation symptoms
Text: This is a classical central (i.e., brain) cholinergic over-stimulation (overdrive) effect.

[6] = system: Aβ; assay: Preclinical studies, Aβ levels in nerve cells; format: cell-based, rat; conditions: for reduction of Aβ levels in nerve cells: versus controls
[7] = system: β-APP; assay: Preclinical studies, β-APP levels; format: cell-based, rat; conditions: versus controls
[8] = molecular target: T2, AChE (Homo sapiens, UniProt P22303); assay: biochemical; conditions: IC50 Value AChE, Brain
T2 construct: other: Brain
Text: (§2) For example, the pharmacological activity of each compound may be expressed as the IC50, which is defined as the concentration (e.g., in nanomoles) required to inhibit 50% of the enzyme activity of ACHE or produce a 50% reduction in β-APP or Aβ. The AChE inhibition IC50 values may be determined by measuring the enzyme activity at each concentration and expressed as a percentage of the activity determined in the absence of each compound. This then is transformed into a logit format, where logit=In (% activity/[100−% activity]), and was plotted as a finction of the log concentration of the compound (Id.). IC50 values (i.e., logit=In (50/[100−50 =0) were determined only from correlation coefficients (r^2) of […] and when more than 50% inhibition was achieved from duplicate samples.

[9] = system: Aβ; assay: Aβ levels in neuroblastoma cell culture (ELISA); format: cell-based, human; conditions: for secreted levels of Aβ: SK-N-SH cells, 5 or 50 μM, up to 16 hours, vs control, no cellular toxicity (LDH), FIG. 4/5
Method: as §1
Total Aβ Assay: Total Aβ peptide levels in SH—SY-5Y and SK—N—SH cultured samples were assayed by a sensitive ELISA assay (Suzuki et al., (1994) An Increased Percentage of Long Amyloid Beta Protein Secreted by Familial Amyloid Beta Protein Precursor (beta APP717) Mutants, Science 264:1336-1340). For total Aβ peptide measurements, a sandwich immunoassay with rabbit polyclonal antibody to residues 1-40 of Aβ or a monoclonal antibody to residues 17-25 of Aβ as a capture antibody for all species of Aβ peptide, Aβ1-40 and Aβ1-42, was used, and the values were expressed as the mean of six independent assays.

[10] = molecular target: T3, BChE (Homo sapiens, UniProt P06276); assay: BChE inhibition IC50 (RBC/plasma and brain); format: biochemical
T3 construct: (−)-Phenserine (RBC/plasma); from tissue; host or cells: plasma (RBC/plasma rows); brain (Brain rows)

[11] = system: β-APP; assay: β-APP production on coadministration of (+)-phenserine with an AChEI (Example III); format: cell-based
Text: The compounds may be tested by the procedure utilized in Example II.

[12] = molecular target: T4, acetylcholinesterase (AChE) (Homo sapiens, UniProt P22303); conditions: compared with the negative enantiomer; Pei, Greig et al. (1995); cited from earlier work
T4 construct: host or cells: human erythrocytes

[13] = Randomized, double-blind, placebo-controlled 12-week study in mild to moderate Alzheimer's disease; format: in vivo, human; conditions: oral, 12 weeks
[14] = molecular target: T4, acetylcholinesterase (AChE); assay: IC50 for AChE inhibition, phenserine enantiomers; format: biochemical
Text: as §2

[15] = extracellular β-APP levels, read-out: IC50 for β-APP secretion
[16] = intracellular β-APP levels, read-out: IC50 for intracellular β-APP
[17] = human neuroblastoma cells, 2 μM, 10 μM and 50 μM (text: 50 μM), FIG. 3

T4 sequence (P22303 32-617 isoform P22303-2 limits assumed): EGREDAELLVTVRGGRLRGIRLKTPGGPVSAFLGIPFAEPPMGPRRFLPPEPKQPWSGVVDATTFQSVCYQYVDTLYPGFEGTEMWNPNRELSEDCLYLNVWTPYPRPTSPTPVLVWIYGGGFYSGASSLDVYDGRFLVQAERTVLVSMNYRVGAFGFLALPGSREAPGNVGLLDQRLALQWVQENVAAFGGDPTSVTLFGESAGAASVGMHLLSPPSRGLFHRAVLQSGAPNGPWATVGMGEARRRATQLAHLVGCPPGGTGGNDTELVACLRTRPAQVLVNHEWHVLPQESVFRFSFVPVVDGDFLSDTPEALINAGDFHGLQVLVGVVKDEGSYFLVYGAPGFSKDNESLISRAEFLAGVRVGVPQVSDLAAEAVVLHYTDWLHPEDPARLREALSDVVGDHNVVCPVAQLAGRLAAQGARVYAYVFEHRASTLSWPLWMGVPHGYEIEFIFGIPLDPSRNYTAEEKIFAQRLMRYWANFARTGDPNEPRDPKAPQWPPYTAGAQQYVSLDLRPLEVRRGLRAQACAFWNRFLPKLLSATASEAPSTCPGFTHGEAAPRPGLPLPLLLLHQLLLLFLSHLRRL
T3 sequence (P06276 29-602, species assumed): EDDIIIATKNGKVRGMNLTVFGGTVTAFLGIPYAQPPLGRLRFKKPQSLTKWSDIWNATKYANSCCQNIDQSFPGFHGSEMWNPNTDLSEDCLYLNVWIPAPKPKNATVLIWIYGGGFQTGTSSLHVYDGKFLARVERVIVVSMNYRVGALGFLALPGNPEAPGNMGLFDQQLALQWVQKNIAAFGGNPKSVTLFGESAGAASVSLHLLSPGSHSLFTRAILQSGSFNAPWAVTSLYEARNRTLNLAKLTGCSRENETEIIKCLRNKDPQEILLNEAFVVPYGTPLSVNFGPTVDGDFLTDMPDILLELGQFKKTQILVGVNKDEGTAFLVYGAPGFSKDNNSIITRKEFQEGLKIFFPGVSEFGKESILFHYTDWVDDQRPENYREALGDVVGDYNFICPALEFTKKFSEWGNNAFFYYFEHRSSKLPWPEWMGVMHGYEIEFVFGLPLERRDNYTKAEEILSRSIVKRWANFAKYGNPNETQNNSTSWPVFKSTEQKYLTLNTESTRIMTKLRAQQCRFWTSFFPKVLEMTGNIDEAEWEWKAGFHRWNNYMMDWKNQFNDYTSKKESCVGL
T2 sequence (P22303 whole entry): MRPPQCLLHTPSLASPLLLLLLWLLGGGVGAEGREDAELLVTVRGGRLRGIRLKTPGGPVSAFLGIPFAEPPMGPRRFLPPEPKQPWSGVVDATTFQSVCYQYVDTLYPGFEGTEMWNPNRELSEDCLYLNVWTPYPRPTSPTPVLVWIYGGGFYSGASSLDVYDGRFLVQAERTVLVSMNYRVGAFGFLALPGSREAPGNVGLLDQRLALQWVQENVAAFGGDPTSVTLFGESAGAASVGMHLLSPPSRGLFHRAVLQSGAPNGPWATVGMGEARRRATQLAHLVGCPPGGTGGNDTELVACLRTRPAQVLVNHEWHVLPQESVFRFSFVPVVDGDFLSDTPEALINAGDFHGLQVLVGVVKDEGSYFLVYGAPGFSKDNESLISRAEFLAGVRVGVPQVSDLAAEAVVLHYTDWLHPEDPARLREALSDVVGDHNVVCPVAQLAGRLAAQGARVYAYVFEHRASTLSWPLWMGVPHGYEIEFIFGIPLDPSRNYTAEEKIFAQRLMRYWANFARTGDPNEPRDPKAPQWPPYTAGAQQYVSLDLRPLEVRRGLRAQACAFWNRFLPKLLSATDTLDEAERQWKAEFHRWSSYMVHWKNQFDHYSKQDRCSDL

With `COc1cc2c(cc1OC)C(=O)C(CC1CCN(Cc3ccccc3)CC1)C2` (centres unmarked) [donepezil, reference compound] the “intracellular β-APP level” value [1] was “decreased intracellular levels” and the “intracellular β-APP level” value ([1]; listed as Donepezil) was “reduces intracellular β-APP”.
In the case of `COP(=O)(OC)C(O)C(Cl)(Cl)Cl` (centres unmarked) [Metrifonate], the “secreted β-APP levels” value [2] is reported as “did not alter”.
With `CN1CC[C@@]2(C)c3cc(OC(=O)Nc4ccccc4)ccc3N(C)C12` (single isomer, unassigned; (-)) [(−)-phenserine] the “extracellular β-APP in the CSF, dose dependence of the decrease” value ([3]; adult rats, up to very high doses) was “reaches a plateau that is not further decreased even at very high doses”, the “CSF levels of β-APP” value ([3]; naive rats, 2.5 mg/kg, 2.5 mg/kg) was “lowered β-APP levels; also recorded: reduce β-APP levels” and the “CSF levels of β-APP” value ([3]; rats with cholinergic forebrain (nucleus basalis of Meynert) lesions) was “lowered β-APP levels”. The inhibition at 1 mg/kg ([4]; at 5 minutes, read-out: maximum AChE inhibition) was 73.5%, the inhibition at 1 mg/kg ([4]; at 8 hours, read-out: AChE inhibition) was 43% and the “duration of fine tremor” value ([5]; 5 mg/kg i.p.) was “about 1 hour”. The observed symptoms ([5]; 5 mg/kg i.p.) was “a fine tremor was observed”, the observed symptoms ([5]; 7.5 mg/kg i.p.) was “Tremor, together with symptoms of peripheral over-stimulation (specifically, lacrimation and salivation)” and the observed symptoms ([5]; 20 mg/kg i.p.) was “incapacitated by severe tremor and peripheral side effects”. For the same compound, the “animals killed when moribund” value ([5]; 20 mg/kg i.p., of 5 treated animals) was 2, the “reduction of Aβ levels in nerve cells” value ([6]; after 8 hours) was 14% and the “reduction of Aβ levels in nerve cells” value ([6]; after 16 hours) was 31%. For the same compound, the “levels of β-APP” value [7] was “similarly reduced”, the IC50 [8] was 36 ± 3 nM and the “secreted levels of Aβ” value [9] was “significantly lowered; also recorded: reduces β-APP and Aβ levels in a concentration-dependent manner; also recorded: substantially reduced from that of the controls especially at 16 hours”. For the same compound, the “β-APP levels, intracellular and extracellular” value [1] was “significantly lowered; also recorded: reduces β-APP and Aβ levels in a concentration-dependent manner; also recorded: decreased the β-APP levels”, the IC50 [1, 15] was ~670 nM and the IC50 ([1]; intracellular β-APP levels, read-out: IC50 for inhibition of β-APP, intracellular) was ~1100 nM. The IC50 [1, 16] was ~1100 nM, the IC50 ([10]; Brain) was 2500 ± 1100 nM and the IC50 ([10]; RBC/plasma) was 1560 ± 270 nM.
For `CN1CC[C@]2(C)c3cc(OC(=O)Nc4ccccc4)ccc3N(C)C12` (single isomer, unassigned; (+)) [(+)-phenserine], the “production of β-APP” value ([11]; coadministered with donepezil) was “reduce the production of β-APP”, the “production of β-APP” value ([11]; coadministered with eptastigmine) was “reduce the production of β-APP” and the “production of β-APP” value ([11]; coadministered with galantamine) was “reduce the production of β-APP”. The “production of β-APP” value ([11]; coadministered with huperzine A) was “reduce the production of β-APP”, the “production of β-APP” value ([11]; coadministered with rivastigmine) was “reduce the production of β-APP” and the “activity as an inhibitor of human acetylcholinesterase” value [12] was “far less active”. For the same compound, the observed symptoms ([5]; 20 mg/kg i.p.) was “entirely without symptoms”, the “efficacy test level (NPI, CGIC, ADAS-cog, MMSE, CANTAB, ADCS-ADL) vs First Level” value ([13]; 50 mg bid with 5 mg bid (−)-phenserine) was “maintain a level at least as great as the First Level” and the “efficacy test level (NPI, CGIC, ADAS-cog, MMSE, CANTAB, ADCS-ADL) vs First Level” value ([13]; 50 mg bid with 6-12 mg per day rivastigmine) was “maintain a level at least as great as the First Level”. For the same compound, the Aβ levels ([6]; combined with (−)-phenserine) was “further reduced”, the “secreted levels of Aβ” value [9] was “significantly lowered” and the “secreted levels of Aβ” value ([9]; listed as (+)-Phenserine) was “capable of reducing the β-APP and Aβ protein levels”. The “β-APP levels, intracellular and extracellular” value [1] was “significantly lowered”, the “β-APP levels, intracellular and extracellular” value ([1]; listed as (+)-Phenserine) was “capable of reducing the β-APP and Aβ protein levels” and the IC50 [1, 15] was ~670 nM. For the same compound, the IC50 [1, 16] was ~1100 nM and the IC50 [14] was > 25000 nM.
In the case of `CCN(C)C(=O)Oc1cccc([C@H](C)N(C)C)c1` [rivastigmine, reference compound], the Aβ peptide levels [9, 17] is reported as “No statistically significant change; also recorded: without a statistically significant change” and the “secreted β-APP” value [1, 17] is reported as “elevated secretion of β-APP; also recorded: elevates the levels of secreted β-APP”.
For `Nc1c2c(nc3ccccc13)CCCC2` [Tacrine], the “secreted β-APP levels” value [2] was “did not alter”.
